Patent US9969726B2, “Metabotropic glutamate receptor negative allosteric modulators (NAMS) and uses thereof” (Sanford-Burnham Medical Research Institute, priority 2014, dated 2018)
Like-named read-outs stand apart in the source and are kept apart here.

Assays:
[1] = target: rat mGlu2 receptor (Rattus norvegicus (Rat), UniProt P31421); assay: mGlu2 in vitro GIRK thallium flux assay; format: cell-based; details: NAM, EC80 glutamate, HEK-293 GIRK cells
Description: (§1) All cell culture reagents were purchased from Invitrogen Corp. (Carlsbad, Calif.) unless otherwise noted. Compound activity at the group II (mGlu2 and mGlu3) mGlus was assessed using thallium flux through GIRK channels. Briefly, cells were plated into 384-well, black-walled, clear-bottomed poly-D-lysine-coated plates at a density of 15,000 cells/20 μL/well in DMEM containing 10% dialyzed FBS, 20 mM HEPES, and 100 units/mL penicillin/streptomycin (assay media). Plated cells were incubated overnight at 37° C. in the presence of 5% CO2. […] Cells were incubated for 1 h at room temperature, and the dye exchanged to assay buffer using an ELX405, leaving 20 μL/well. Test compounds were diluted to 2 times their final desired concentration in assay buffer (0.3% DMSO final concentration). […] Cell plates and compound plates were loaded onto a kinetic imaging plate reader (FDSS 6000 or 7000; Hamamatsu Corporation, Bridgewater, N.J.). Appropriate baseline readings were taken (10 images at 1 Hz; excitation, 470±20 nm; emission, 540±30 nm) and test compounds were added in a 20 μL volume and incubated for either 2.5 min or 60 min as indicated before the addition of 10 μL of thallium buffer with or without agonist. After the addition of agonist, data were collected for approximately an additional 2.5 min. Data were analyzed using Excel (Microsoft Corp, Redmond, Wash.). The slope of the fluorescence increase beginning 5 s after thallium/agonist addition and ending 15 s after thallium/agonist addition was calculated, corrected to vehicle and maximal agonist control slope values, and plotted in using either XLfit (ID Business Solutions Ltd) or Prism software (GraphPad Software, San Diego, Calif.) to generate concentration-response curves. Potencies were calculated from fits using a four-point parameter logistic equation. For concentration-response curve experiments, compounds were serially diluted 1:3 into 10 point concentration response curves and were transferred to daughter plates using an Echo acoustic plate reformatter (Labcyte, Sunnyvale, Calif.). Test compounds were applied and followed by EC80 concentrations of glutamate.

[2] = target: rat mGlu3 receptor (Rattus norvegicus (Rat), UniProt P31422); assay: mGlu3 in vitro GIRK thallium flux assay; format: cell-based; details: NAM; 2.5 min compound incubation; EC80 glutamate; HEK-293 GIRK cells
rat mGlu3 receptor, sequence (P31422 23-879): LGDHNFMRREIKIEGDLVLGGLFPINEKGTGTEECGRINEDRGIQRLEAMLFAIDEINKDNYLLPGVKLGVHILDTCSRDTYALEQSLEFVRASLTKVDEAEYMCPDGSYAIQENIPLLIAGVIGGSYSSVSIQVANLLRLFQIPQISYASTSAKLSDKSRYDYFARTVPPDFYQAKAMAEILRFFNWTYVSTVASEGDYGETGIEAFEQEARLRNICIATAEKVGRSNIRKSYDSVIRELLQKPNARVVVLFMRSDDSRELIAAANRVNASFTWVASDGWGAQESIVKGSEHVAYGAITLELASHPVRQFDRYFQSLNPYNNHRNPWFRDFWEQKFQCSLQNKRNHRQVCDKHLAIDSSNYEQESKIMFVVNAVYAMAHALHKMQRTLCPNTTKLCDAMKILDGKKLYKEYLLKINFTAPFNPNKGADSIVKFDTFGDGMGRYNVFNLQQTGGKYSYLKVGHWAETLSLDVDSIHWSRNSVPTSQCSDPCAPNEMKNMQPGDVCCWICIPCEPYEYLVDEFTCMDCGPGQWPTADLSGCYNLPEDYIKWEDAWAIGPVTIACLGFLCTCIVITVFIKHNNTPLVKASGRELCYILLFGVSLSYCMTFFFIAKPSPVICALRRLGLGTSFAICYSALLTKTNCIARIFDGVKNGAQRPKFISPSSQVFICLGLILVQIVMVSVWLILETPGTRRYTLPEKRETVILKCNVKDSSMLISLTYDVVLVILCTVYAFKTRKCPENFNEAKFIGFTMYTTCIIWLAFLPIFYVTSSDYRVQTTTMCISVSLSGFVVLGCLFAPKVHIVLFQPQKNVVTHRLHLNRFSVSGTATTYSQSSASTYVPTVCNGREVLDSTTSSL
Description: as §1

[3] = mGlu2 EC50 (μM) (60 min), 60 min compound incubation
[4] = 2.5 min compound incubation, read-out: mGlu2 EC50 (μM) (2.5 min)
[5] = read-out: mGlu2 EC50 (μM) (60 min), 60 min compound incubation

rat mGlu2 receptor, sequence (P31421 19-872): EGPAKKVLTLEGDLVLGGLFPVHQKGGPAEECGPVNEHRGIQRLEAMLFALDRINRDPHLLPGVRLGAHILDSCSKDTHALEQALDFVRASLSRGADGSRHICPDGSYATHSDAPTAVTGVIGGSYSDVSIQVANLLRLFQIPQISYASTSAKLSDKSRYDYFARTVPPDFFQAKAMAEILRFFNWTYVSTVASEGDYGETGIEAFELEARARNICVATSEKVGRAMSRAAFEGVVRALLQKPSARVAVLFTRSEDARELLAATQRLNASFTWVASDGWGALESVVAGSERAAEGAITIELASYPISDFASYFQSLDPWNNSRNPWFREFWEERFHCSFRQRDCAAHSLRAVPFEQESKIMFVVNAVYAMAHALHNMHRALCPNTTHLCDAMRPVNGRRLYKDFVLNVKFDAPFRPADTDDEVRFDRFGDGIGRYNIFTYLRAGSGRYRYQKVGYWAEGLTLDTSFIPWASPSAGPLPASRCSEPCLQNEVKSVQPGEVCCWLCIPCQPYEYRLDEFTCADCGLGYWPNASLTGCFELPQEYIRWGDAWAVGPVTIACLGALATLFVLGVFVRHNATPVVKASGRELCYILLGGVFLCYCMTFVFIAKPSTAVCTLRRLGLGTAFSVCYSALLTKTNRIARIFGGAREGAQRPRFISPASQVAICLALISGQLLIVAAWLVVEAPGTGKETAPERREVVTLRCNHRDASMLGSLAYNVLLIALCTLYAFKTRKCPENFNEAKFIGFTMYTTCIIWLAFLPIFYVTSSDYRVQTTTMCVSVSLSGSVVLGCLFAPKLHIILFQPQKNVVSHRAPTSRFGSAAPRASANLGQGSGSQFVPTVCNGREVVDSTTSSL

| SMILES | EC50 [1, 3] [µM] | EC50 [1, 4] [µM] | EC50 [2] [µM] | EC50 [1, 5] [µM] |
| --- | --- | --- | --- | --- |
| COC(=O)c1cccc(C2CC(=O)Nc3cc(C(F)(F)F)c(C)cc3N2)c1 (racemic) [Example 151, (±)-Methyl 3-(8-methyl-4-oxo-7-(trifluoromethyl)-2,3,4,5-tetrahydro-1H-benzo[b][1,4]diazepin-2-yl)benzoate] | > 10 | – | – | – |
| Cc1cc2c(cc1C(F)(F)F)NC(=O)CC(c1cccc(CCCO)c1)N2 (racemic) [Example 154, 4-(3-(3-Hydroxypropyl)phenyl)-7-methyl-8-(trifluoromethyl)-4,5-dihydro-1H-benzo[b][1,4]diazepin-2(3H)-one] | 4.43 | > 10 | > 10 | – |
| Cc1cc(-c2cccc(C3CC(=O)Nc4cc(C(F)(F)F)c(C)cc4N3)c2)cc(C)n1 (racemic) [Example 156, 4-(3-(2,6-Dimethylpyridin-4-yl)phenyl)-7-methyl-8-(trifluoromethyl)-4,5-dihydro-1H-benzo[b][1,4]diazepin-2(3H)-one] | 3.7 | > 10 | > 10 | – |
| O=C1CC(c2cccc(Br)c2)Nc2ccc(NC(=O)OCc3ccccc3)cc2N1 (racemic) [Example 158, Benzyl (2-(3-bromophenyl)-4-oxo-2,3,4,5-tetrahydro-1H-benzo[b][1,4]diazepin-7-yl)carbamate] | > 10 | – | – | – |
| N#Cc1cc(C2CC(=O)Nc3cc(C(=O)O)ccc3N2)ccn1 (racemic) [Example 160, 2-(2-Cyanopyridin-4-yl)-4-oxo-2,3,4,5-tetrahydro-1H-benzo[b][1,4]diazepine-7-carboxylic Acid] | > 30 | – | – | – |
| N#Cc1cccc(C2CC(=O)Nc3cc(C(=O)O)ccc3N2)c1 (racemic) [Example 161, 2-(3-Cyanophenyl)-4-oxo-2,3,4,5-tetrahydro-1H-benzo[b][1,4]diazepine-7-carboxylic Acid] | > 30 | – | – | – |
| Cc1cc(-c2cccc(C3CC(=O)Nc4cc(NC(=O)OCc5ccccc5)ccc4N3)c2)cc(C)n1 (racemic) [Example 162, Benzyl (2-(3-(2,6-dimethylpyridin-4-yl)phenyl)-4-oxo-2,3,4,5-tetrahydro-1H-benzo[b][1,4]diazepin-7-yl)carbamate] | 5.36 | > 10 | > 10 | – |
| Cc1cc2c(cc1C(F)(F)F)NC(=O)CC(c1cccc(Oc3ncccn3)c1)N2 (racemic) [Example 164, 7-Methyl-4-(3-(pyrimidin-2-yloxy)phenyl)-8-(trifluoromethyl)-4,5-dihydro-1H-benzo[b][1,4]diazepin-2(3H)-one] | 1.56 | > 10 | 5.57 | – |
| Cc1cc2c(cc1C(F)(F)F)NC(=O)CC(c1cccc(Oc3ccccn3)c1)N2 (racemic) [Example 165, 7-Methyl-4-(3-(pyridin-2-yloxy)phenyl)-8-(trifluoromethyl)-4,5-dihydro-1H-benzo[b][1,4]diazepin-2(3H)-one] | 1.47 | 4.37 | 3.47 | – |
| Cc1cc2c(cc1C(F)(F)F)NC(=O)CC(c1cccc(-n3ccc4ccccc43)c1)N2 (racemic) [Example 167B, 4-(3-(1H-Indol-1-yl)phenyl)-7-methyl-8-(trifluoromethyl)-4,5-dihydro-1H-benzo[b][1,4]diazepin-2(3H)-one] | > 10 | – | – | – |
| C#CCNC(=O)c1cccc(C2CC(=O)Nc3cc(C(F)(F)F)c(C)cc3N2)c1 (racemic) [Example 170B, 3-(8-Methyl-4-oxo-7-(trifluoromethyl)-2,3,4,5-tetrahydro-1H-benzo[b][1,4]diazepin-2-yl)-N-(prop-2-yn-1-yl)benzamide] | 3.68 | – | – | – |
| Cc1cc2c(cc1C(F)(F)F)NC(=O)CC(c1cccc(OCc3ccccc3)c1)N2 (racemic) [Example 178, 4-(3-(Benzyloxy)phenyl)-7-methyl-8-(trifluoromethyl)-4,5-dihydro-1H-benzo[b][1,4]diazepin-2(3H)-one] | > 10 | – | – | – |
| Cc1cc2c(cc1C(F)(F)F)NC(=O)CC(c1cccc(CCC(=O)O)c1)N2 (single isomer, unassigned) [Example 155B, 3-(3-(8-methyl-4-oxo-7-(trifluoromethyl)-2,3,4,5-tetrahydro-1H-benzo[b][1,4]diazepin-2-yl)phenyl)propanoic acid] | > 10 | – | – | – |
| Cc1cc2c(cc1C(F)(F)F)NC(=O)CC(c1cccc(Sc3ncccn3)c1)N2 (single isomer, unassigned) [Example 166B, 7-Methyl-4-(3-(pyrimidin-2-ylthio)phenyl)-8-(trifluoromethyl)-4,5-dihydro-1H-benzo[b][1,4]diazepin-2(3H)-one] | – | 8.47 | 4.53 | 1.23 |
| Cc1cc2c(cc1C(F)(F)F)NC(=O)CC(c1cccc(C(N)=O)c1)N2 (single isomer, unassigned) [Example 168A, 3-(8-Methyl-4-oxo-7-(trifluoromethyl)-2,3,4,5-tetrahydro-1H-benzo[b][1,4]diazepin-2-yl)benzamide] | > 10 | – | – | – |
| Cc1cc2c(cc1C(F)(F)F)NC(=O)CC(c1cccc(Oc3cc(F)cc(F)c3)c1)N2 (single isomer, unassigned) [Example 174B, 4-(3-(3,5-Difluorophenoxy)phenyl)-7-methyl-8-(trifluoromethyl)-4,5-dihydro-1H-benzo[b][1,4]diazepin-2(3H)-one] | – | – | – | > 10 |
| C#Cc1cccc(C2CC(=O)Nc3cc(C(F)(F)F)c(C)cc3N2)c1 (single isomer, unassigned) [Example 175B, 4-(3-Ethynylphenyl)-7-methyl-8-(trifluoromethyl)-4,5-dihydro-1H-benzo[b][1,4]diazepin-2(3H)-one] | 4.47 | – | – | – |
| NS(=O)(=O)c1cccc(-c2cccc(-c3csc(-c4ccccc4)n3)c2)c1 [Example 2, 3′-(2-Phenylthiazol-4-yl)biphenyl-3-sulfonamide] | > 10 | > 30 | > 30 | – |
| O=C(O)c1cc(-c2cccc(-c3cnc(-c4ccccc4)s3)c2)ccc1F [Example 3, 4-Fluoro-3′-(2-phenylthiazol-5-yl)biphenyl-3-carboxylic Acid] | – | > 30 | > 10 | > 10 |
| Fc1ccc(-c2cccc(-c3nc(-c4ccc(C(F)(F)F)nc4)cc(C(F)(F)F)n3)c2)cc1-c1nn[nH]n1 [Example 124, 2-(4′-Fluoro-3′-(2H-tetrazol-5-yl)-[1,1′-biphenyl]-3-yl)-4-(trifluoromethyl)-6-(6-(trifluoromethyl)pyridin-3-yl)pyrimidine] | – | – | – | 1.29 |
| O=c1[nH]c(-c2cc(-c3cccc(-c4nc(-c5ccoc5)cc(C(F)(F)F)n4)c3)ccc2F)no1 [Example 133, 3-(4-Fluoro-3′-(4-(furan-3-yl)-6-(trifluoromethyl)pyrimidin-2-yl)-[1,1′-biphenyl]-3-yl)-1,2,4-oxadiazol-5(4H)-one] | – | – | – | 0.73 |
| Fc1ccc(-c2cccc(-c3nc(-c4ccoc4)cc(C(F)(F)F)n3)c2)cc1-c1noc(=S)[nH]1 [Example 134, 3-(4-Fluoro-3′-(4-(furan-3-yl)-6-(trifluoromethyl)pyrimidin-2-yl)-[1,1′-biphenyl]-3-yl)-1,2,4-oxadiazole-5(4H)-thione] | – | – | – | > 10 |
| O=c1[nH]c(-c2cc(-c3cccc(-c4nc(-c5ccoc5)cc(C(F)(F)F)n4)c3)ccc2F)ns1 [Example 135, 3-(4-Fluoro-3′-(4-(furan-3-yl)-6-(trifluoromethyl)pyrimidin-2-yl)-[1,1′-biphenyl]-3-yl)-1,2,4-thiadiazol-5(4H)-one] | – | – | – | > 10 |
| Cc1cccc(C#Cc2cccc(C3=Nc4cc(C)c(C(F)(F)F)cc4NC(=O)C3)c2)n1 [Example 138, 7-Methyl-4-(3-((6-methylpyridin-2-yl)ethynyl)phenyl)-8-(trifluoromethyl)-1H-benzo[b][1,4]diazepin-2 (3H)-one] | – | – | – | > 10 |
| Cc1cc2c(cc1C(F)(F)F)NC(=O)CC(c1cccc(Nc3ccccn3)c1)=N2 [Example 141, 7-Methyl-4-(3-(pyridin-2-ylamino)phenyl)-8-(trifluoromethyl)-1H-benzo[b][1,4]diazepin-2(3H)-one] | – | – | – | > 10 |
| CCOC(=O)/C=C/c1cccc(C2=Nc3cc(C)c(C(F)(F)F)cc3NC(=O)C2)c1 [Example 152, Ethyl 3-(3-((E)-7-methyl-2-oxo-8-(trifluoromethyl)-2,3-dihydro-1H-benzo[b][1,4]diazepin-4-yl)phenyl)acrylate] | – | – | – | 3.26 |
| O=C1CC(c2cccc(Br)c2)=Nc2ccc(NC(=O)OCc3ccccc3)cc2N1 [Example 157, Benzyl (4-(3-bromophenyl)-2-oxo-2,3-dihydro-1H-benzo[b][1,4]diazepin-8-yl)carbamate] | – | – | – | > 10 |
